IC50 data for 17 compounds are collected here from patent publication US10487068B2, “Pyridazine derivatives as RORc modulators” (Genentech, Inc., priority 2015, dated 2019).

The target in this assay is T1, RORc ligand binding domain (Homo sapiens, UniProt P51449).
T1 sequence (P51449 269-508 limits assumed): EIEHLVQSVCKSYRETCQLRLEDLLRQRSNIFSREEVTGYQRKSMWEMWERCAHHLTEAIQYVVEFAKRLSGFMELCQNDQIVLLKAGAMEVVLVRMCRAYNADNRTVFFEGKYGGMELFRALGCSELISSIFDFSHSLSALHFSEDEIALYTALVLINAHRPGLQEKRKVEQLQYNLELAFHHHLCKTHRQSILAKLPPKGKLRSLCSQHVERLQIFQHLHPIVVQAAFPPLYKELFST
Kind of assay: In Vitro RORc Ligand Binding Assay. The conditions noted are these: RORc IC50, radioligand 25-[3H]hydroxycholesterol 6 nM; 0.6 ug/mL RORc receptor; 3 h at 25° C.

Each structure is given as a SMILES string.

One may read the IC50 as the concentration that gives 50% inhibition. Low readings indicate inhibition by little substance, high ones a need for much substance. Turning to `CC(C)(O)Cc1n[nH]c(-c2cncc([C@@]34CC[C@@H](c5cc(-c6c(F)cccc6F)nnc53)C4(C)C)n2)n1` [Example 354, 1-(5-(6-((5R,8S)-3-(2,6-difluorophenyl)-9,9-dimethyl-5,6,7,8-tetrahydro-5,8-methanocinnolin-8-yl)pyrazin-2-yl)-1H-1,2,4-triazol-3-yl)-2-methylpropan-2-ol], the IC50 came to 20.7 nM.

`CC1(C)[C@H]2CC[C@]1(c1ccnc(C3CCN(C(=O)CO)CC3)n1)c1nnc(-c3c(F)cccc3F)cc12` [Example 355] yielded an IC50 of 12.4 nM.

Compound `CC1(C)[C@H]2CC[C@]1(c1ccnc(C3CCOCC3)n1)c1nnc(-c3c(F)cccc3F)cc12` [Example 356] gave an IC50 of 2.4 nM.

`CC(C)(C#N)c1n[nH]c(-c2cccc([C@@]34CC[C@@H](c5cc(-c6c(F)cccc6F)nnc53)C4(C)C)n2)n1` [Example 357, 2-(5-(6-((5R,8S)-3-(2,6-difluorophenyl)-9,9-dimethyl-5,6,7,8-tetrahydro-5,8-methanocinnolin-8-yl)pyridin-2-yl)-1H-1,2,4-triazol-3-yl)-2-methylpropanenitrile] returned an IC50 of 13 nM.

Take `Cc1nc(CO)nn1-c1nccc([C@@]23CC[C@@H](c4cc(-c5c(F)cccc5F)nnc42)C3(C)C)n1` [Example 358]: the IC50 amounted to 60.4 nM.

The compound `CC1(C)[C@H]2CC[C@]1(c1ccnc(-n3cnc(=O)[nH]3)n1)c1nnc(-c3c(F)cccc3F)cc12` [Example 359] yielded a concentration for half-maximal inhibition (IC50) of 17.3 nM.

`Cc1nc(=O)[nH]n1-c1nccc([C@@]23CC[C@@H](c4cc(-c5c(F)cccc5F)nnc42)C3(C)C)n1` [Example 360] displayed an IC50 of 127 nM.

For `CC(C)(C)OC(=O)N1CCC[C@@H](c2nccc([C@@]34CC[C@@H](c5cc(-c6c(F)cccc6F)nnc53)C4(C)C)n2)C1` [Example 361], the IC50 was 20.1 nM.

For the compound `CC(C)(C)OC(=O)N1CCCC(c2nccc([C@@]34CC[C@@H](c5cc(-c6c(F)cccc6F)nnc53)C4(C)C)n2)C1` (some centres unmarked) [Example 362], the IC50 was found to be 15.8 nM.

`Cc1ncnn1-c1ncc(F)c([C@@]23CC[C@@H](c4cc(-c5c(F)cccc5F)nnc42)C3(C)C)n1` [Example 363] displayed an IC50 of 33.5 nM.

The compound `CC1(C)[C@H]2CC[C@]1(c1ccnc(C3CCCN(C(=O)CO)C3)n1)c1nnc(-c3c(F)cccc3F)cc12` (some centres unmarked) [Example 364] came in with an IC50 of 50.4 nM.

As to `CC1(C)[C@H]2CC[C@]1(c1cncc(-c3nc([C@H](O)C(F)(F)F)co3)n1)c1nnc(-c3c(F)cccc3F)cc12` [Example 366, (S)-1-(2-(6-((5R,8S)-3-(2,6-difluorophenyl)-9,9-dimethyl-5,6,7,8-tetrahydro-5,8-methanocinnolin-8-yl)pyrazin-2-yl)oxazol-4-yl)-2,2,2-trifluoroethanol], the IC50 came to 3.5 nM.

Regarding `Cc1ccn(-c2nccc([C@@]34CC[C@@H](c5cc(-c6c(F)cccc6F)nnc53)C4(C)C)n2)n1` [Example 367], the IC50 turned out to be 3.1 nM.

Compound `CC1(C)[C@H]2CC[C@]1(c1ccnc(-n3cnc(CO)n3)n1)c1nnc(-c3c(F)cccc3F)cc12` [Example 368] yielded a 50% inhibitory concentration (IC50) of 5.4 nM.

Turning to `CC1(C)[C@H]2CC[C@]1(c1cncc(-c3nc(CS(C)(=O)=O)co3)n1)c1nnc(-c3c(F)cccc3F)cc12` [Example 369, 2-(6-((5R,8S)-3-(2,6-difluorophenyl)-9,9-dimethyl-5,6,7,8-tetrahydro-5,8-methanocinnolin-8-yl)pyrazin-2-yl)-4-((methylsulfonyl)methyl)oxazole], the half-inhibitory concentration (IC50) stood at 3.6 nM.

For `CC(C)(O)c1ccc(-c2nccc([C@@]34CC[C@@H](c5cc(-c6c(F)cccc6F)nnc53)C4(C)C)n2)cn1` [Example 370], the IC50 is 4.4 nM.

With `CC(C)(O)c1coc(-c2cncc([C@@]34CC[C@@H](c5cc(-c6c(F)cccc6Cl)nnc53)C4(C)C)n2)n1` [Example 371, 2-(2-(6-((5R,8S)-3-(2-chloro-6-fluorophenyl)-9,9-dimethyl-5,6,7,8-tetrahydro-5,8-methanocinnolin-8-yl)pyrazin-2-yl)oxazol-4-yl)propan-2-ol], the IC50 came out at 3.3 nM.
